What was measured:
[1] = target: T1, eEF2K (Homo sapiens, UniProt O00418); details: literature; cited from earlier work
T1 sequence (O00418 1-725): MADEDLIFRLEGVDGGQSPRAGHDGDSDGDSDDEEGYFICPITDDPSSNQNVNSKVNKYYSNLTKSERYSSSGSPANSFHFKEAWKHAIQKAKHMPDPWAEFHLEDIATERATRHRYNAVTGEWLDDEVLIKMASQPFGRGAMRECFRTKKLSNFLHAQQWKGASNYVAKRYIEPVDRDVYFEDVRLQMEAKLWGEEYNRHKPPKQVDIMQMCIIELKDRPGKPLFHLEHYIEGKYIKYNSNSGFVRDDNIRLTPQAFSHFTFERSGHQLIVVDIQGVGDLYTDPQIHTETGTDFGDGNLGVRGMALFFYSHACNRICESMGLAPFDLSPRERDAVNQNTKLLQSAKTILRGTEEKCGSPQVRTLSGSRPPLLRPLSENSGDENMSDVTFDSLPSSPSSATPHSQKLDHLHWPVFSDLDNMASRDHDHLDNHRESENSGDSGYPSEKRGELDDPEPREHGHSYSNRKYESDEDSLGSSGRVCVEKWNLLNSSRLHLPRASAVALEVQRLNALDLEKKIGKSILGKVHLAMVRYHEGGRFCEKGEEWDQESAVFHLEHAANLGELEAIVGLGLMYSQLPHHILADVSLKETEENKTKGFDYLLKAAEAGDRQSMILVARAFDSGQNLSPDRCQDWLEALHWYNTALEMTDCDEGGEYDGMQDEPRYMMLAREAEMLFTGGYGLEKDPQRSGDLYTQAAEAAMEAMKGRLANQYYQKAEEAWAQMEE

[2] = target: T1, eEF2K; assay: Western blot analysis of eEF2K activity (p-EF2 Thr56) in MDA-MB-231 cells; type: cell-based; details: for eEF2K inhibition potential: western blot, 2.5 to 20 micromolar
Experimental: MeOH: distilled water by volume (%) (70:30) was used as the mobile phase for HPLC analysis for the inventive compound and the flow rate was set to 1 mL min^−1. Triple negative breast cancer (TNBC) cell lines (ER-, PR- and HER2-) MDA-MB-231 cells were purchased from the American Type Culture Collection (ATCC) (Manassas, VA, USA). MDA-MB-231 cells were cultured in Dulbecco's modified Eagle's medium (DMEM)/F12 supplemented with 10% FBS (Fetal Bovine Serum) and 100 U mL^−1 penicillin and streptomycin. Specific antibodies (p-EF2 (Thr56) (2331S), eEF2 (2332S), eEF2K (3692S) and GAPDH (5174S)) were purchased from Cell Signaling Technology (CST).
Western blot analysis was carried out according to previously reported studies to evaluate the eEF2K inhibition activity for the synthesized compounds. The synthesized compound was applied to MDA-MB-231 cells in the range of various concentrations from 2.5 to 20 micromolar for 2 h treatment. The expression levels of p-EF2 (Thr56) inhibition and eEF2K activity were determined by using related antibodies such as p-EF2 (Thr56), eEF2 and eEF2K. Glyceraldehyde 3-phosphate dehydrogenase (GAPDH) was used as a loading control.
To determine the effects of the synthesized compounds in inhibiting eEF2K activity in TNBC, MDA-MB-231 cells, we performed western blot analysis at concentrations ranging from 2.5 micromolar to 20 micromolar in a dose-dependent manner. eEF2K inhibition was detected by decreased phosphorylation levels of EF2 (p-EF2-Thr-56), a direct downstream substrate of the enzyme.

[3] = test system: cancer cells; details: literature; cited from earlier work

Compound | eEF2K inhibition (reported) [1] | eEF2K inhibition potential [2] | further results
Cc1cc(C=C2C(=O)C=CC2=O)cc(C)c1O [TX1918] | did not show significant eEF2K inhibition |  | concentration reported to inhibit eEF2K [1]: 10 µM
CCCCCCCCCCCCCCCCn1cc[n+](Cc2ccccc2)c1C.[I-] [NH125] | does not inhibit EF2K |  | 
CCc1cccc2c3c([nH]c12)C(CC)(CC(=O)O)OCC3 (racemic) [Etodolac, (R,S)-2-[1,8-diethyl-1,3,4-tetrahydropyrano [3,4-b]indol-1-yl]acetic acid] |  | did not show any inhibition potential | 
CCc1cccc2c3c([nH]c12)C(CC)(CC(=O)N1CCCCC1)OCC3 (centres unmarked) [Inventive compound, 2-(1,8-diethyl-1,3,4,9-tetrahydropyrano [3,4-b]indol-1-yl)-1-(piperidin-1-yl) ethan-1-one] |  | high inhibition potential | eEF2K inhibition (reduced levels of p-EF2) ([2]; 2.5 micromolar, compared to etodolac (EC)): marked inhibition; inhibition of phospho-eEF2 (Thr56) ([2]; 20 micromolar, 2 hours treatment): highest inhibition
CCn1c(=O)c2cc(C(N)=O)c(N)nc2n(C2CC2)c1=O [A484954] |  |  | dose showing inhibition effect in cancer cells [3]: 75 µM
